From US20250296937A1, “CYCLIC BISBENZYL TETRAHYDROISOQUINOLINE COMPOUND, AND PREPARATION METHOD THEREFOR AND USE THEREOF” (Shanghai Institute of Materia Medica, Chinesse Academy of …, priority 2021, published 2025)
Entries after “also recorded” stand apart in the source; their conditions may differ. Read-outs that look alike come from different tables or passages of the source.

Columns and labels:
[1] = test system: inflammatory factor mRNA in Raw 264.7 cells; assay: mRNA levels of inflammatory indicators in TNF-α-induced inflammation model of Raw264.7 cells (Q-PCR); type: cell-based; conditions: 10 ng/ml TNF-α, 1 μM compound, 16 hours
Method: (§1) In this embodiment, the effect of compounds on TNF-α-induced inflammation levels in Raw 264.7 cells was analyzed by cell viability combined with inflammatory factor expression levels; cell viability was analyzed by CCK-8 assay; and mRNA expression levels of inflammation-associated indicators were detected by real-time quantitative PCR (Q-PCR) method. Raw 264.7 cells were purchased from ATCC, CCK-8 kit was purchased from Meilunbio, item number MA0218-3, TNF-α was purchased from Merck, item no. GF314.
Experimental methods: first, 5*10^4 cells/well Raw 264.7 cells were placed in 12-well plates and incubated overnight. On the second day, 0.1% DMSO was added to the control cells, 10 ng/ml TNF-α as well as 0.1% DMSO was added to the model group, 10 ng/ml TNF-α as well as 1 μM of the compounds (oxyacanthine hydrochloride (oxy), 1, 2, tetrandrine (tet), 3, 4, 6, 58) was added to the treatment group, and the 12-well plates were sterilized and incubated in a constant temperature incubator for 16 hours. Cellular mRNA was extracted by lysis using Trizol (Yisheng, 10606ES60) and detected by real-time quantitative PCR after reverse transcription, the primers are the same as in Table 2.

[2] = test system: carbon tetrachloride-induced acute liver fibrosis; assay: Carbon tetrachloride-induced acute liver fibrosis in mice; type: in vivo, C57BL/6 mice; conditions: for liver fibrosis indicators (Collagen1, α-SMA) by WB assay: 30 mg/kg orally once a day for 6 days, CCl4 0.6 ml/kg i.p. D1, D3, D5; for effect on CCl4-induced acute liver fibrosis in mice: oral administration, 30 mg/kg
Method: In this example, the effect of the compounds of the present invention on the carbon tetrachloride-induced acute liver fibrosis model was analyzed by tissue observation, fibrosis indicators, HE and Sirius red staining; the injury of mice was determined by body weight testing and tissue bright-field photographing; the protein expression levels of fibrosis-related indicators were detected by WesternBlot assay; and the fibrosis progression was analyzed by HE and Sirius red staining. C57BL/6 mice were purchased from SLAC; CCl4 was purchased from Sinopharm Chemical Reagent Co, Ltd, item no. 10006464; olive oil was purchased from Sinopharm, item no. 69018028; primary antibody: Collagen was purchased from ARG21965, item no. arigobio; α-smooth muscle actin was purchased from CST, item no. mAb #19245; VIMENTN was purchased from CST, item no. mAb #5741; GAPDH was purchased from Yeasen, item no. mAb #30201ES20.
Solution preparation: CCl4 was diluted with olive oil (1:9, vol:vol) and the compounds were configured with 85% saline+5% DMSO+5% HS-15+5% PEG400 as solvents toa concentration of 3 mg/ml.
Construction of fibrosis model mice: […] C57 mice were randomly divided into […] after 1 week of adaptive feeding: blank group, model group, and 2 treatment groups; with 6 experimental animals in the blank group and 8 experimental animals in each of the remaining 3 groups. Except for the blank group, the remaining three groups were injected intraperitoneally with CCl4 (0.6 ml/kg) in D1, D3, and D5, respectively, and the blank group was injected intraperitoneally with olive oil at the same time. At the same time of modeling, mice in the treatment group were continuously administered by gavage for 6 days, once a day, 2 h after the injection of CC14, and the treatment group was administered orally 30 mg/kg of Compound 2 or Compound 4; mice in the blank group and the model group were given an equal amount of saline by intraperitoneal injection, and the mice were euthanized 24 h after the last administration of CCl4 for test. A portion of the liver tissue was cut to appropriate size and placed in 4% PFA, −80° C. refrigerator for subsequent detection of pathological changes in tissue sample slices, and WB assay, respectively.
Detection methods: 1. After autopsy, liver in situ photos were taken; 2. Liver tissue was retained and lysed using RIPA to extract proteins for WB detection; 3. HE staining as well as Sirius red detection were performed when liver tissue sections were fixed.

[3] = test system: ALM12 hepatocytes; assay: Anti H2O2-induced necrotic injury assay in ALM12 hepatocytes (microscopy, CCK-8); type: cell-based; conditions: 2 mM H2O2, 1 μM compound, 3 hours, microscope and CCK-8
Method: In this example, the effect of the compounds of the present invention on the level of necrotic injury induced by H2O2 in ALM12 hepatocytes was analyzed by microscopic morphological observations, cell viability in combination with cell death-associated molecules. Cell viability was analyzed by CCK-8 assay. ALM12 cells were cultured in 1640 medium (gibco, c11995500BT)+10% FBS (gibco, 10099141C) in a constant temperature incubator at 37° C., 5% CO2; the CCK-8 kit was purchased from Meilunbio, item no. MA0218-3; H2O2 was purchased from Sinopharm Chemical Reagent Co. item no. 10011208.
Experimental methods: first, 8000 cells/well ALM12 cells were placed in 96-well plates and incubated overnight. On the second day, 0.1% DMSO was added to the control cells, 2 mM H2O2 as well as 0.1% DMSO was added to the model group, 2 mM H2O2 as well as 1 μM of the compounds (oxy, 1, 2, tet, 3, 4, 6, 58) was added to the treatment group, and the 96-well plates were sterilized and incubated in a constant temperature incubator for 3 hours. Finally, cell injury and growth were observed using a microscope; the viability of the cells was detected by CCK-8 kit.

[4] = test system: Raw 264.7 cells; assay: Cell viability in TNF-α induced inflammation model of Raw 264.7 cells (CCK-8); type: cell-based; conditions: 10 ng/ml TNF-α, 1 μM compound, 16 hours
Method: as §1
Experimental methods: first, 8000 cells/well Raw 264.7 cells were placed in 96-well plates and incubated overnight. On the second day, 0.1% DMSO was added to the control cells, 10 ng/ml TNF-α as well as 0.1% DMSO was added to the model group, 10 ng/ml TNF-α as well as 1 μM of the compounds (oxyacanthine hydrochloride (oxy), 1, 2, tetrandrine (tet), 3, 4, 6, 58) was added to the treatment group, and the 96-well plates were sterilized and incubated in a constant temperature incubator for 16 hours. Finally, the viability of the cells was detected using the CCK-8 kit.

[5] = biological target: T1, hERG potassium channel (Homo sapiens, UniProt Q12809); assay: hERG potassium channel whole-cell membrane clamp in CHO cells; type: cell-based; conditions: for IC50: CHO cells stably expressing hERG, whole-cell membrane clamp
T1 construct: expressed in transfected cells
T1 sequence (Q12809 whole entry): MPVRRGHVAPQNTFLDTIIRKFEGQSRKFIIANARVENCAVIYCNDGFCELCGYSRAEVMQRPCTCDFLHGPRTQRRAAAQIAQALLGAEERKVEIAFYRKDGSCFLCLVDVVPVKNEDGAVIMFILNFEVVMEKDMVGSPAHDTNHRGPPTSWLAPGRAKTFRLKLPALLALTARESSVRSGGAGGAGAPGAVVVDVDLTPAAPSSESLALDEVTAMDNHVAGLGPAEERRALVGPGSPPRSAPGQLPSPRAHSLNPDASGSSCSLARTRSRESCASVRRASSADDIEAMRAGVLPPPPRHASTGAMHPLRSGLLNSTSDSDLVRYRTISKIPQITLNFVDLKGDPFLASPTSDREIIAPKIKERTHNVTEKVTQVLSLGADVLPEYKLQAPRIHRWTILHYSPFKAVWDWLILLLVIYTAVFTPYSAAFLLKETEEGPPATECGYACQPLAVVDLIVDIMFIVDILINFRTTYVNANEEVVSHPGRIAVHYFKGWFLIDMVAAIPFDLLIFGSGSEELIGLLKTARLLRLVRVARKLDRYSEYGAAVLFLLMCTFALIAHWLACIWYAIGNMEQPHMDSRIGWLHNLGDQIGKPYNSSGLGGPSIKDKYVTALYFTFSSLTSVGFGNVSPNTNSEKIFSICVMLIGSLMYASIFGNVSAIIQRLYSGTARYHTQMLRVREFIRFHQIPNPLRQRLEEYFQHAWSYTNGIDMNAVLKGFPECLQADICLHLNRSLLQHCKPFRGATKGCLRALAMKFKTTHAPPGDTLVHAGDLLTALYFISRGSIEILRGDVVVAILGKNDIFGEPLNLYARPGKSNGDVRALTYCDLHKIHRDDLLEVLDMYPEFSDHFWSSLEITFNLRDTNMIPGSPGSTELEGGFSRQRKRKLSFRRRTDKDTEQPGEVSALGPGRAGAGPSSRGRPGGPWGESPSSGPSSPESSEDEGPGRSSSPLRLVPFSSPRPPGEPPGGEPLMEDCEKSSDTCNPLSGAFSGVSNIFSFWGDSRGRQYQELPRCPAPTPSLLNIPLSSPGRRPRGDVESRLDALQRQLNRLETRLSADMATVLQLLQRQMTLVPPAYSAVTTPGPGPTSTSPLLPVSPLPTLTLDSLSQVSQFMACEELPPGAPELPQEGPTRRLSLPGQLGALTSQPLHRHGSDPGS
Method: Compounds were given for at least 1 min for each tested concentration, and at least 2 cells (n≥2) were tested per concentration.

[6] = test system: 2019 novel coronavirus (SARS-CoV-2) original strain; assay: Replication inhibitory activity against SARS-CoV-2 original strain in Vero E6 cells (qRT-PCR); type: cell-based; conditions: read-out: Inhibition against viral replication of the original strain EC50

Compound | inhibition of inflammatory factors (mRNA) in TNF-α-induced inflammation model [1] | liver fibrosis indicators (Collagen1, α-SMA) by WB assay [2] | effect on CCl4-induced acute liver fibrosis in mice [2] | alleviation of H2O2-induced ALM12 hepatocyte injury [3] | cell viability in TNF-α-induced inflammation model [4] | activity against hERG ion channels [5] | IC50 ([5]; human, CHO cells stably expressing hERG potassium channels, pH 7.4) | EC50 ([6]; Severe acute respiratory syndrome coronavirus 2, Vero C1008, Vero E6 cells, MOI 0.01, 24 h p.i., viral copy number by qRT-PCR) | IC50 [5] | EC50 ([6]; Severe acute respiratory syndrome coronavirus 2, Vero C1008, 24 h)
COc1cc2c3cc1Oc1c(OC)c(OC)cc4c1[C@H](Cc1ccc(cc1)Oc1cc(ccc1C(N)=O)C[C@H]3N(C)CC2)N(C)CC4 [Compound 4] | significantly inhibited inflammatory factors; also recorded: significant inhibition | down-regulated | alleviated; also recorded: mitigative effect | significantly alleviated | did not affect cell viability | weakly active | 20 µM | 0.1 to 1 µM |  | 
CCCCNC(=O)Oc1ccc2cc1Oc1ccc(cc1)C[C@H]1c3c(cc(OC)c(OC)c3Oc3cc4c(cc3OC)CCN(C)[C@@H]4C2)CCN1C [Compound 2] | significantly inhibited inflammatory factors; also recorded: significant inhibition | down-regulated | alleviated; also recorded: mitigative effect | significantly alleviated | did not affect cell viability | weakly active |  |  | 19 µM | 0.1 to 1 µM
